Results published in ChEMBL document CHEMBL4765389, “Antimicrobial and anti-inflammatory activities of short dodecapeptides derived from duck cathelicidin: Plausible mechanism of bactericidal action and endotoxin neutralization” (Eur J Med Chem, 2020).
The source made the active and inactive calls. No cut-off for these calls is given here.

Key:
[1] = Antibacterial activity against multidrug-resistant Pseudomonas aeruginosa CCARM 2095 assessed as reduction in bacterial growth incubated for 24 hrs in presence of ciprofloxacin by CLSI based broth dilution method; type: functional; details: read-out: MIC100
Salmonella typhimurium = test: Antibacterial activity against Salmonella typhimurium KCTC 1926 assessed as reduction in bacterial growth incubated for 24 hrs by CLSI based broth dilution method; type: functional, Salmonella enterica subsp. enterica serovar Typhimurium; details: Salmonella enterica, read-out: MIC100
Staphylococcus aureus [2] = test: Antibacterial activity against methicillin-resistant Staphylococcus aureus CCARM 3089 assessed as reduction in bacterial growth incubated for 24 hrs by CLSI based broth dilution method; type: functional; details: read-out: MIC100
[3] = Cytotoxicity against mouse NIH/3T3 cells assessed as reduction in cell viability at 20 uM incubated for 24 hrs by MTT assay; type: cell-based, NIH3T3; details: NIH/3T3 cells, read-out: INH
Staphylococcus aureus [4] = test: Antibacterial activity against Staphylococcus aureus KCTC 1621 assessed as reduction in bacterial growth incubated for 24 hrs in presence of 20 % serum by CLSI based broth dilution method; type: functional; details: read-out: MIC100
[5] = Therapeutic index, ratio of HC10 for sheep RBC to geometric mean MIC for gram negative bacteria; type: toxicity; details: sheep red blood cells, read-out: TI
Staphylococcus aureus [6] = test: Antibacterial activity against methicillin-resistant Staphylococcus aureus CCARM 3090 assessed as reduction in bacterial growth incubated for 24 hrs in presence of ciprofloxacin by CLSI based broth dilution method; type: functional; details: read-out: MIC100
[7] = Antibacterial activity against multidrug-resistant Pseudomonas aeruginosa CCARM 2109 assessed as reduction in bacterial growth incubated for 24 hrs by CLSI based broth dilution method; type: functional; details: read-out: MIC100
DNA = test: Binding affinity to Escherichia coli pBR322 DNA assessed as increase in DNA retardation at 8 uM incubated for 1 hr by agarose gel electrophoresis relative to control; type: nucleic-acid assay
[8] = Antibacterial activity against multidrug-resistant Pseudomonas aeruginosa CCARM 2095 assessed as fractional inhibitory concentration incubated for 24 hrs in presence of oxacillin by CLSI based broth dilution method; type: functional
Staphylococcus aureus [9] = test: Antibacterial activity against Staphylococcus aureus KCTC 1621 assessed as reduction in bacterial growth incubated for 24 hrs in presence of 6 uM NH4Cl by CLSI based broth dilution method; type: functional; details: read-out: MIC100
[10] = Drug uptake in Escherichia coli KCTC 1682 assessed as cytoplasmic accumulation at 2 times MIC incubated for 30 mins by confocal laser scanning microscopy; type: ADME; details: 0.5 h
Escherichia coli [11] = test: Antibacterial activity against Escherichia coli KCTC 1682 assessed as reduction in bacterial growth incubated for 24 hrs in presence of 1 mM MgCl2 by CLSI based broth dilution method; type: functional; details: read-out: MIC100
Cell membrane [12] = test: Induction of cell membrane permeability in Staphylococcus aureus KCTC 1621 assessed as cytoplasmic membrane depolarization at 16 uM by SYTOX dye based fluorescence assay; type: subcellular
Escherichia coli [13] = test: Antibacterial activity against Escherichia coli KCTC 1682 assessed as reduction in bacterial growth incubated for 24 hrs in presence of 4 uM FeCl3 by CLSI based broth dilution method; type: functional; details: read-out: MIC100
[14] = Antibacterial activity against multidrug-resistant Pseudomonas aeruginosa CCARM 2095 assessed as fractional inhibitory concentration index incubated for 24 hrs in presence of oxacillin by CLSI based broth dilution method; type: functional
RAW264.7 [15] = test: Antiinflammatory activity in mouse RAW264.7 cells assessed as neutralization of LPS binding by measuring LPS-FITC aggregation at 10 uM pretreated with LPS for 1 hr followed by compound addition and measured after 1 hr by flowcytometry analysis (reference value: 48.12 %); type: functional
Escherichia coli [16] = test: Antibacterial activity against Escherichia coli KCTC 1682 assessed as reduction in bacterial growth incubated for 24 hrs in presence of 2.5 mM CaCl2 by CLSI based broth dilution method; type: functional; details: read-out: MIC100
Escherichia coli [17] = test: Antibacterial activity against Escherichia coli KCTC 1682 assessed as reduction in bacterial growth incubated for 24 hrs in presence of 6 uM NH4Cl by CLSI based broth dilution method; type: functional; details: read-out: MIC100
Staphylococcus aureus [18] = test: Antibacterial activity against methicillin-resistant Staphylococcus aureus CCARM 3090 assessed as reduction in bacterial growth incubated for 24 hrs by CLSI based broth dilution method; type: functional; details: read-out: MIC100
Escherichia coli [19] = test: Antibacterial activity against Escherichia coli KCTC 1682 assessed as reduction in bacterial growth incubated for 24 hrs in presence of 150 mM NaCl by CLSI based broth dilution method; type: functional; details: read-out: MIC100
RAW264.7 [20] = test: Antiinflammatory activity against mouse RAW264.7 cells assessed as reduction in LPS-induced TNFalpha level at 10 uM incubated for 24 hrs by […] relative to control; type: functional
Staphylococcus aureus [21] = test: Antibacterial activity against Staphylococcus aureus KCTC 1621 assessed as reduction in bacterial growth incubated for 24 hrs in presence of 150 mM NaCl by CLSI based broth dilution method; type: functional; details: read-out: MIC100
Cell membrane [22] = test: Induction of cell membrane permeability in Escherichia coli KCTC 1682 assessed as cytoplasmic membrane […] fluorescent signals at 2 times MIC measured after 1 hr by propidium iodide dye based flow cytometry analysis (reference value: 9.8 %); type: subcellular
Escherichia coli [23] = test: Antibacterial activity against Escherichia coli KCTC 1682 assessed as reduction in bacterial growth incubated for 24 hrs by CLSI based broth dilution method; type: functional; details: read-out: MIC100
[24] = Antibacterial activity against multidrug-resistant Pseudomonas aeruginosa CCARM 2095 assessed as fractional inhibitory concentration index incubated for 24 hrs in presence of chloramphenicol by CLSI based broth dilution method; type: functional
Staphylococcus aureus [25] = test: Antibacterial activity against methicillin-resistant Staphylococcus aureus CCARM 3090 assessed as reduction in bacterial growth incubated for 24 hrs in presence of oxacillin by CLSI based broth dilution method; type: functional; details: read-out: MIC100
Lipopolysaccharide (LPS) = test: Inhibition of Escherichia coli O111:B4 LPS aggregation assessed as increase in FITC-LPS dissociation by spectrofluorometry
Staphylococcus aureus [26] = test: Antibacterial activity against methicillin-resistant Staphylococcus aureus CCARM 3090 assessed as fractional inhibitory concentration index incubated for 24 hrs in presence of oxacillin by CLSI based broth dilution method; type: functional
Erythrocyte = test: Hemolytic activity in sheep RBC assessed as reduction in hemoglobin incubated for 1 hr; type: ADME, cell-based, Ovis aries
Escherichia coli [27] = test: Bactericidal activity against Escherichia coli KCTC 1682 assessed as reduction in colony forming unit at MIC measured at 3 hrs by time kill assay; type: functional
Escherichia coli [28] = test: Antibacterial activity against Escherichia coli KCTC 1682 assessed as reduction in bacterial growth incubated for 24 hrs in presence of 4.5 mM KCl by CLSI based broth dilution method; type: functional; details: read-out: MIC100
Staphylococcus aureus [29] = test: Antibacterial activity against Staphylococcus aureus KCTC 1621 assessed as reduction in bacterial growth incubated for 24 hrs in presence of 4.5 mM KCl by CLSI based broth dilution method; type: functional; details: read-out: MIC100
RAW264.7 [30] = test: Antiinflammatory activity against mouse RAW264.7 cells assessed as reduction in LPS-induced TNFalpha mRNA expression at 10 uM incubated for 3 hrs by qRT-PCR analysis; type: functional, cell-based
[31] = Therapeutic index, ratio of HC10 for sheep RBC to geometric mean MIC for gram positive bacteria; type: toxicity; details: sheep red blood cells, read-out: TI
RAW264.7 [32] = test: Antiinflammatory activity against mouse RAW264.7 cells assessed as reduction in LPS-induced iNOS mRNA expression at 5 uM incubated for 6 hrs by qRT-PCR analysis; type: functional, cell-based

| Substance | MIC [1] [µM] | MIC (Salmonella typhimurium) [µM] | MIC (Staphylococcus aureus [2]) [µM] | cytotoxicity at 24 h, 20 µM [3] [%] | MIC (Staphylococcus aureus [4]) [µM] | selectivity ratio [5] | MIC (Staphylococcus aureus [6]) [µM] | MIC [7] [µM] | Activity (DNA) [%] | FIC [8] | MIC (Staphylococcus aureus [9]) [µM] | Drug uptake [10] | MIC (Escherichia coli [11]) [µM] | Activity (Cell membrane [12]) | MIC (Escherichia coli [13]) [µM] | fractional inhibitory concentration index (FICI) [14] | Activity (RAW264.7 [15]) [%] | MIC (Escherichia coli [16]) [µM] | MIC (Escherichia coli [17]) [µM] | MIC (Staphylococcus aureus [18]) [µM] | further results |
| --- | --- | --- | --- | --- | --- | --- | --- | --- | --- | --- | --- | --- | --- | --- | --- | --- | --- | --- | --- | --- | --- |
| H-LIKKIYRKWKRW-NH2 | 64 | 2 | 16 | < 10 | 4 | 91.4 | 128 | 8 | 100 | 0.125 | 8 | Active | 8 | inactive | 8 | 0.375 | 24.41 | 8 | 2 | 8 | MIC (Escherichia coli [19]): 4 µM; inhibition at 10 µM (RAW264.7 [20]): 47.3%; MIC (Staphylococcus aureus [21]): 8 µM; Activity (Cell membrane [22]): 9.53%; MIC (Escherichia coli [23]): 8 µM; fractional inhibitory concentration index (FICI) [24]: 0.313; MIC (Staphylococcus aureus [25]): 64 µM; inhibition (Lipopolysaccharide (LPS)): Dose-dependent effect; fractional inhibitory concentration index (FICI) (Staphylococcus aureus [26]): 0.375; HC10 (Erythrocyte): > 256 µM; Activity (Escherichia coli [27]): <2 log10CFU/ml; MIC (Escherichia coli [28]): 2 µM; MIC (Staphylococcus aureus [29]): 4 µM; inhibition (RAW264.7 [30]): Active; selectivity ratio [31]: 71.1; inhibition (RAW264.7 [32]): Active |
| H-LWKKIYRKWKRW-NH2 | 64 | 2 | 16 | < 10 | 4 | 128 | 64 | 4 | 100 | 0.125 | 2 | Active | 4 | inactive | 8 | 0.375 | 15.47 | 4 | 2 | 8 | MIC (Escherichia coli [19]): 4 µM; inhibition at 10 µM (RAW264.7 [20]): 65%; MIC (Staphylococcus aureus [21]): 2 µM; Activity (Cell membrane [22]): 6.31%; MIC (Escherichia coli [23]): 4 µM; fractional inhibitory concentration index (FICI) [24]: 0.375; MIC (Staphylococcus aureus [25]): 64 µM; inhibition (Lipopolysaccharide (LPS)): Dose-dependent effect; fractional inhibitory concentration index (FICI) (Staphylococcus aureus [26]): 0.375; HC10 (Erythrocyte): > 256 µM; Activity (Escherichia coli [27]): <2 log10CFU/ml; MIC (Escherichia coli [28]): 4 µM; MIC (Staphylococcus aureus [29]): 4 µM; inhibition (RAW264.7 [30]): Active; selectivity ratio [31]: 753; inhibition (RAW264.7 [32]): Active |
